According to patent US20210260036A1, “METHODS OF TREATMENT FOR ALPHA-1 ANTITRYPSIN DEFICIENCY” (Vertex Pharmaceuticals Incorporated, priority 2020, published 2021):

How the values were obtained:
healthy subjects = experiment: Phase 1 randomized, double-blinded, placebo-controlled single and multiple-dose study; type: in vivo, human; settings: single and multiple doses
Description: A randomized, double-blinded, placebo-controlled single and multiple-dose Phase I study evaluating Compound I has been completed in healthy subjects.

Z-AAT [1] = target: T1, Z-AAT (Homo sapiens, UniProt P01009, E366K); experiment: Z-AAT folding, polymerization and secretion in cell line models; type: cell-based; settings: multiple cell line models
T1 sequence (P01009 25-418 E366K): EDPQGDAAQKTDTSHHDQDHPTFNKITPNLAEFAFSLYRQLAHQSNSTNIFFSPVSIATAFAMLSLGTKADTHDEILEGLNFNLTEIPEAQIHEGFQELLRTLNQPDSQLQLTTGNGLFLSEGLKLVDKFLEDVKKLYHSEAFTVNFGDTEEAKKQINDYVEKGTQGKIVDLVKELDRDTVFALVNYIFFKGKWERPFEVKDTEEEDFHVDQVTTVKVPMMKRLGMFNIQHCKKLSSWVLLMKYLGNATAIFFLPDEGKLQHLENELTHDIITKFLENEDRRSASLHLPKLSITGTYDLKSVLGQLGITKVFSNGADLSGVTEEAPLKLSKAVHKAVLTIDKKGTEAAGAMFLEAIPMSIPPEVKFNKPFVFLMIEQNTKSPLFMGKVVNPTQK
Description: (§1) 4-[5-(4-fluorophenyl)-6-tetrahydropyran-4-yl-1H-pyrrolo[2,3-f]indazol-7-yl]benzoic acid (Compound I), disclosed in PCT/US2020/032832, filed on May 14, 2020, is being developed as a treatment for AATD. […] Thus, Compound I has the potential to address both the loss-of-function and the gain-of-function aspects of the Z mutation. By restoring physiological levels of circulating AAT activity, Compound I may reduce the risk of lung disease. By preventing Z-polymer formation in the liver, Compound I may reduce the risk of developing progressive liver disease (fibrosis and cirrhosis).

Z-AAT [2] = target: T1, Z-AAT; experiment: Z-AAT folding and secretion in transgenic mice expressing human Z-AAT; type: in vivo; set-up: expressed in transfected cells; host or cells: transgenic mice expressing human Z-AAT; settings: transgenic mice engineered to express human Z-AAT
Description: as §1

O=C(O)c1ccc(-c2c(C3CCOCC3)n(-c3ccc(F)cc3)c3cc4cn[nH]c4cc23)cc1 [Compound I, 4-[5-(4-fluorophenyl)-6-tetrahydropyran-4-yl-1H-pyrrolo[2,3-f]indazol-7-yl]benzoic acid]
safety and tolerability (healthy subjects): safe and well-tolerated
serious adverse events (healthy subjects): no serious adverse events
folding of Z-AAT (Z-AAT [1]): promotes the proper folding of Z-AAT
intracellular Z-AAT protein polymerization (Z-AAT [1]): preventing intracellular Z-AAT protein polymerization
secretion of functionally active AAT (Z-AAT [1]): increasing secretion of functionally active AAT
folding and secretion of functionally active AAT (Z-AAT [2]): facilitates proper folding and secretion of functionally active AAT
